# Source: the METLIN SMRT retention time set (Domingo-Almenara et al. 2019)
# Assay: gradient 5% acetonitrile 3 min, to 50% in 2 min, to 85% in 15 min, held 3 min, 100 µL/min
# Settings: column: Zorbax Extend-C18 2.1 x 50 mm; eluents: water / acetonitrile, 0.1% formic acid
# Summary of the method: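 Retention time was recorded from adduct peaks, which were picked computationally and each inspected manually. Pure standards ran in mixtures of ~100 molecules on HPLC coupled to a quadrupole time-of-flight mass spectrometer, in positive and negative ionization mode, through a Zorbax Extend-C18 column (2.1 × 50 mm, 1.8 μm) at 100 μL/min. Eluents were water and acetonitrile, each with 0.1% formic acid.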
row,RP-LC retention time,Compound
1,1300 s,COc1ccc(-c2ccnn2-c2ccc(SCc3cccc(F)c3)nn2)cc1
2,927 s,CCCn1c(=O)c(C)nc2cc(-c3noc(C4CC(=O)N(c5ccc(C)cc5)C4)n3)ccc21 (configuration not stated)
3,588 s,CCOC(=O)CNC(=O)N1CCN(CCn2c(C(F)(F)F)nc3cccnc32)CC1
4,587 s,COC(=O)Nc1ccc2c(c1)C(=O)N(C)CCO2
5,690 s,COc1ccc(CCNC(=O)c2cc(C3CC3)[nH]n2)cc1OC
6,1050 s,Cc1nn(CC(=O)N2CCc3ccccc32)c(=O)c2nn(-c3ccccc3)c(C)c12
7,698 s,CCN1CCCCc2cc(C(=O)NCCN3CCCCC3C)sc21 (configuration not stated)
8,778 s,Cc1cc(NC(=O)Cn2nc3c4sc(N(C)C)nc4ncn3c2=O)ccc1Br
9,638 s,CCCn1nnnc1NCc1ccc2c(c1)n(C)c(=O)n2C
10,784 s,O=C(Cc1cccs1)NC1CCCN(c2cc(-c3ccc(F)cc3)[nH]n2)C1 (configuration not stated)
11,825 s,Cc1ccc(N2CCN(C(=O)C3CCc4sc(C(=O)N(C)C)cc4C3)CC2)cc1 (configuration not stated)
12,842 s,CC(C)COc1cc(=O)n2c(c1C(=O)NC1CCCCC1)CCCCC2
13,621 s,CCc1ccc2[nH]c3c(c(=O)c2c1)CN(CC(=O)NCc1ccccc1OC)CC3
14,1130 s,COc1ccc(Cl)cc1S(=O)(=O)N1CCc2nc(-c3ccc(F)cc3)ncc2C1
15,745 s,CCN1C(=O)c2cccnc2Sc2cc(NC(=O)c3ccoc3)ccc21
16,736 s,CCC(=O)NCCc1csc(C2CCCN(C(=O)C3(c4ccccc4)CC3)C2)n1 (configuration not stated)
17,659 s,Cc1ccc(Sc2ccc(N3CCCC(C(=O)N4CCN(c5ccccn5)CC4)C3)nn2)cc1 (configuration not stated)
18,636 s,Cc1ccc(-n2nnc(C(=O)O)c2-c2ccncc2)cc1
19,869 s,Cc1nnc2sc(SCc3ccc(Cl)cc3Cl)nn2c1=O
20,849 s,CCOC(=O)Cc1ccc(NC(=O)N2CCCn3nc(-c4cccs4)cc3C2)cc1
21,762 s,Cc1ccccc1CNC(=O)c1cn2c(n1)CCCC2
22,891 s,Cc1ccccc1Cn1nc2ccc(S(=O)(=O)N3CCCC3)cn2c1=O
23,899 s,O=C(c1ccc(-c2ccc3c(c2)CCN3S(=O)(=O)c2ccccc2F)cc1)N1CCOCC1

row,RP-LC retention time,Compound
1,609 s,O=C(CCn1c(N2CCCC2)nc2ccsc2c1=O)N1CCN(c2ccccn2)CC1
2,691 s,CCNC(=O)c1ccc(-c2ccc3c(c2)CCN3C(C)=O)cc1
3,748 s,Cc1ccc(CNC(=O)C2c3ccccc3CC(=O)N2C)cc1 (configuration not stated)
4,1080 s,Cc1ccc(NC(=O)c2cn(C)nc2S(=O)(=O)N2CCSCC2)cc1Cl
5,1000 s,CC1CCc2c(sc(NC(=O)Cc3ccc(Cl)s3)c2C(N)=O)C1 (configuration not stated)
6,589 s,Cc1[nH]c(=O)[nH]c(=O)c1CCc1nnc(SCC(=O)c2ccc3c(c2)NC(=O)CO3)o1
7,882 s,Cn1nc(-c2nc(C3CC3)no2)c2c1CCN(C(=O)Nc1ccc(Cl)cc1)C2
8,726 s,O=C(CCn1cnc2cc(-c3noc(Cc4cccc(F)c4)n3)ccc21)N1CCCC1
9,607 s,COCCCNC(=O)CCc1c(-c2ccc(Cl)cc2)nc2ccccn12
10,670 s,CN1CCCn2cc(S(=O)(=O)Nc3ccc(F)cc3)cc2C1=O
11,813 s,CCCNC(=O)c1nc(Nc2ccc(CC)cc2)c2ccccc2n1
12,830 s,Cc1noc(C)c1CCNC(=O)c1ccc2nc(Cc3ccccc3)oc2c1
13,807 s,O=S(=O)(Nc1cccnc1)c1ccc(Cl)c(-c2nnc(-c3ccccc3)o2)c1
14,882 s,O=C(C1=CN(c2ccc(Cl)c(Cl)c2)c2cc(F)ccc2S1(=O)=O)N1CCOCC1
15,596 s,O=C(c1ccccc1OCC1CCCNC1)N1CCCC1 (configuration not stated)
16,618 s,Cc1sc2ccn(CC(C)C)c(=O)c2c1C(=O)N1CCN(c2ccccn2)CC1
17,851 s,COc1ccc(-c2ccnc3nc(Cc4ccc(F)cc4)nn23)cc1OC
18,1170 s,COc1nc2ccccc2nc1N1CCCC(C(=O)Nc2ccc(F)cc2F)C1 (configuration not stated)
19,692 s,CCn1cc(C(=O)NC2CCN(c3ccc(=O)n(CCOc4ccccc4)n3)C2)cn1 (configuration not stated)
20,706 s,COCCOC1CCC12CCN(C(=O)c1conc1C)CC2 (configuration not stated)
21,1000 s,CCOc1ccccc1OCc1nn2c(COc3ccc(F)cc3)nnc2s1
22,876 s,Cc1ccc(C(=O)Nc2ccc3c(c2)Sc2ncccc2C(=O)N3C)cc1C
23,987 s,CCC(C(=O)N1CCN(c2cc(-c3ccc(Cl)cc3)[nH]n2)CC1)c1ccccc1 (configuration not stated)

row,RP-LC retention time,Compound
1,883 s,CC(C)c1ccc(NC(=O)C2CCN(S(=O)(=O)c3ccc4c(c3)CCCC(=O)N4)CC2)cc1
2,936 s,Cc1ccc(CNC(=O)C2(C)CCN(C(=O)Nc3cc(Cl)ccc3C)CC2)cc1
3,858 s,COc1cccc(CNC(=O)C2(C)CCCN(C(=O)Nc3ccc(F)cc3)C2)c1 (configuration not stated)
4,794 s,Cc1ccc(Cn2c(=O)n(CCNC(=O)c3ccsc3)c3ncccc32)cc1
5,686 s,CC1CN(c2ccc(Cl)cc2)c2nc3c(c(=O)n(CCN4CCOCC4)c(=O)n3C)n2C1 (configuration not stated)
6,986 s,COc1ccc(-c2nnc(SCC(=O)Nc3ccc(C)cc3Br)o2)cc1
7,1120 s,CC1=NS(=O)(=O)N(Cc2ccccc2)C=C1C(=O)OCc1nc(-c2ccccc2)no1
8,1400 s,CCOc1nc2ccccc2nc1N1CCCC(C(=O)Nc2cc(C)c(Cl)cc2OC)C1 (configuration not stated)
9,650 s,O=C1CCC(NC(=O)c2ccccc2)C(=O)N1 (configuration not stated)
10,1220 s,CCN(C(=O)c1cccs1)c1nc(-c2ccccc2)cs1
11,868 s,CCN1C(=O)c2cccnc2Sc2cc(NC(=O)c3ccccc3OC)ccc21
12,1110 s,COC(=O)C1=CN(CC(=O)NCc2ccc(OC)cc2)S(=O)(=O)N=C1C
13,1010 s,Cc1ccc(Nc2nc(-c3cc(C)c(C)cc3C)cs2)nc1
14,780 s,CCN1C(=O)Cc2ccccc2C1C(=O)NCc1ccccc1Br (configuration not stated)
15,1250 s,Cc1ccc(C(=O)NC2(c3nc(-c4ccccc4)no3)CCCCC2)cc1C
16,963 s,COc1ccc(-c2nc(C3CC(=O)N(c4ccc(F)c(Cl)c4)C3)no2)cc1OC (configuration not stated)
17,564 s,COc1ncc(C(=O)NCc2ccc(N(C)C)cc2)cn1
18,673 s,Cc1ccccc1NC(=O)N1CCC(c2nc(C(=O)N3CCOCC3)c(C)o2)CC1
19,754 s,CCCCOc1ccc(-c2cc3c(N4CCN(C)CC4)nccn3n2)cc1
20,775 s,COC(=O)c1c(C)[nH]c(C(=O)N2CCC(CC(=O)N3CCN(c4ccccc4)CC3)CC2)c1C
21,655 s,CC1CN2C=NC(N3CCN(C(=O)Nc4ccc5c(c4)CCC5)CC3)=CC2=N1 (configuration not stated)
